Consider four compounds from patent US7338669B2, “Inorganic boranophosphate salts” (Bar-Ilan University, priority 2005, dated 2008).

How the values of series [1] were obtained:
The ^31P NMR chemical shift was monitored as a function of the pH. A five-parameter sigmoid function was fitted to the data using Sigma Plot 2000 (SPSS, Inc.): δ=δ0+a/[1+e^−((pH-pH0)/b)]^c The inflection point, which is determined by the second derivative of the fitted sigmoid function, is the pKa value.
The acid-base character of BPi was studied by ^31P NMR—monitored pH-titration, as described in Experimental, (v).

Series [2] is described as follows: Stability of BPi towards selected organic and inorganic reagents (31P NMR). Type of series: physicochemical. The text has this:
The reactivity of BPi towards various organic and inorganic reagents was explored as part of the characterization of BPi's chemical nature. These reagents include: aqueous acid solution, nitrile, amide, carbodiimide, pyridine and imidazole, tosyl chloride, phosphorous oxychloride, H2, and Zn^2+ and Mg^2+ ions.
Although BH3, in complexes with a variety of sulfur/amine/oxygen compounds, is an efficient reducing agent, its reducing nature is drastically altered in Bpi. For instance, while hydrid transfer from “BH3” to water occurs readily, the BH3 moiety in BPi transfers hydride only in a highly acidic solution (pH<2). Likewise, while BH3.
A carbodiimide reagent is used for the condensations of phosphate to provide the corresponding phosphoric anhydride. […] This finding is in contrast to diethylphosphite (cyano- or methoxycarbonyl)borane analogues, which are stable to dicyclohexylecarbodiimide (DCC) (Vyakaranam et al., 2002).
The reactivity of BPi with imidazole and pyridine was studied. […] The reaction of 5′-DMT-2′-deoxy-thymidine with tetramethyl boranopyrophosphate in the presence of N-methylimidazole was reported to proceed with the partial removal of the borane group. Likewise, when pyridine was used as a solvent, partial removal of the borane group was observed (Wada et al., 2002).
The presence of divalent metal ions such as Zn^2+ and Mg^2+ in DMF and water for 48 h and 4 h, respectively, left BPi unchanged.

Series [3] can be described thus: Stability / decomposition rate of BPi in aqueous solution at different pH, monitored by 31P NMR. Type of series: physicochemical. How it is done:
The decomposition rate was determined by measuring changes in the integration of the respective NMR signals within 96 h.
BPi is stable in neutral and basic solutions.
The borane reacts with water to liberate hydrogen gas and boric acid.

Series [4] in a line: Solubility of BPi salts in water and organic solvents. The format is physicochemical.
The conditions of series [5]: comparison value quoted in the text; cited from earlier work.

Ammonium Boranophosphate [Compound 2a]: in series [1], the “pKa (first inflection point)” value stood at 7.12 and the “pKa (second inflection point)” value is listed as 12.54. In addition, in series [2] (excess EDC, water pH 6.5, 37° C., 4 h, 31P NMR), the “degraded to phosphorus acid (P—B bond cleavage)” value was determined as 72%.
On to inorganic boranophosphate [BPi], for which the stability with imidazole entry in series [2] (2 or 10 equiv. imidazole in CD3OD, 96 h, 31P NMR) is given as “remained unchanged”. Besides, the “stability with divalent metal ions” value in series [2] (Zn^2+ and Mg^2+ in DMF and water for 48 h and 4 h, respectively) is given as “unchanged”. The “stability in acetonitrile and dimethyl formamide” value in series [2] (acetonitrile and dimethyl formamide solutions, no reduction of the solvent) is given as “complete stability”. Moreover, the stability in pyridine result in series [2] (solution in pyridine, 113 h) is “negligible cleavage of the P—B bond”. Besides, the “stability in neutral and basic solutions” value in series [3] (neutral and basic solutions) was “stable”. The “t1/2 of degradation to phosphorus acid” value in series [3] (pH 2, room temperature, 31P NMR) was found to be 11.5 days. In series [3] (pH 2, room temperature, 31P NMR, R^2=1.00), the “rate of degradation to phosphorus acid” value is 7e-07 s⁻¹. For the same compound, the “degradation observed by 31P NMR” value in series [3] (pH 13.7, 48 h, room temperature) is listed as “no degradation”. The “behaviour under highly acidic conditions” value in series [3] (pH<2, H2 evolved, boric acid and phosphorus acid formed) is “the P—B bond is cleaved”. Besides, the “stability in acidic solution” value in series [3] (pH>2) is on record as “relatively stable”. Moreover, in series [4] (in water), the water solubility entry is on record as “high water solubility”.
On to `O=[PH](O)O` [phosphorus acid], for which, in series [5], the “pKa, higher of the two comparison values” is 6.2 and the “pKa, lower of the two comparison values (phosphoric acid: second protonation equilibrium)” value is 1.8.
In the case of “Tributylammonium Boranophosphate [Compound 2b]”, the “solubility in organic solvents” value in series [4] (organic solvents such as MeOH, CH3CN, DMF, CHCl3) is reported as “dissolves only in organic solvents”.
